Measured values reported in patent US11224565B2, “N-acyldipeptide derivatives and their uses” (NeoStrata Company, Inc., priority 2011, dated 2022).
Where “and” joins values, the source holds several entries; their conditions need not be identical. Equal entries are not always repeated. Peptide text beside a SMILES is read from it.

Experiments:
Format in all cases: in vivo, human
[1] = test system: insect bites; assay: Topical application to insect bite lesions (itch, erythema, inflammation)
Protocol: A subject, having intensive itch and erythema on their left arm from insect bites, topically applied 10% (w/w) N—Ac-L-Leu-Gly-NH2 cream as formulated in Example 3 on the involved lesions.
A subject had multiple lesions of insect bites (mosquitoes) over the face and arms with itch and inflammatory lesions of more than 1 cm in size. For testing purposes, the subject divided the lesions into three groups: the first group was treated with vehicle control, the second and third groups were treated with active compositions. The subject topically applied twice daily 0.5% (w/v) N—Ac-L-Val-L-Ala-NH2 solution in WEP442, pH 5.9 on the lesions of the second group, and 0.5% (w/v) N—Ac-L-Tyr-L-Tyr-NH2 solution in WEP442, pH 6.7 (Example 5) on the lesions of the third group. […] The lesions in the second and third groups also started to improve over the next few days. At the end of three days, while there was no discernible change in the lesions treated with vehicle control in the first group, the lesions in the second and third groups had 90-100% improvement with nearly complete disappearance of inflammatory lesions.
A subject had multiple lesions of chigger bites (grass mites) over the legs with intensive itch and red inflammatory lesions. The subject topically applied twice daily 0.5% (w/v) N—Ac-L-Val-L-Ala-NH2 solution in WEP442, pH 6.7 (Example 5) on the lesions. […] The lesions on the legs had 100% improvement as judged by clinical evaluation.
In another embodiment, the volunteer subject topically applied the test compositions containing N-acyldipeptide derivatives of the present invention on involved skin or lesions once or twice daily for several weeks or until the involved lesions completely cleared and clinically changed to normal skin. As a control study, the subject also topically applied a vehicle control composition on the involved skin or lesions twice daily for the same period.

[2] = test system: pain and inflammation of joints and muscles; assay: Topical administration for pain and inflammation of sprained leg, shoulder or muscles
Protocol: A typical example of a topical administration for systemic therapeutic effects was carried out as follows. A subject, having sprained their left leg near the knee with inflammation for several weeks had severe pain each time walking. Massage therapy and conventional treatments provided only a temporary relief. The subject topically applied and rubbed 0.4% (w/v) N—Ac-L-Val-L-Ala-NH2 in WEP442, pH 5.8 as prepared in Example 5 onto the left thigh and calf sites of skin for 30 seconds at night.
The subject topically applied twice daily 0.5% (w/v) N—Ac-L-Tyr-L-Tyr-NH2 in WEP442 solution, pH 6.7 as prepared in Example 5. […] At the end of 5 days, the right shoulder had 90% improvement as determined by clinical evaluation.
The subject topically applied twice daily 0.5% (w/v) N—Ac-L-Val-L-Ala-NH2 in WEP442 solution, pH 6.7 as prepared in Example 5 to the affected area of skin. The pain diminished with less inflammation over the next day.
In yet another embodiment, the volunteer subject topically applied once or twice daily the test compositions containing N-acyldipeptide derivatives of the present invention on the skin site above arthritic joints or painful muscles to provide therapeutic effects for the systemic disorders via topical administration.

[3] = test system: near-sightedness (myopia); assay: Topical application around the eyes, eye vision (myopia); details: person
Text: Typical examples of improving eye vision are described as follows.
Each time their vision in both eyes got worse, and they required changes in contact lenses in past years. This time, 6 weeks before their checkup, the subject topically applied twice daily 0.5% (w/v) N—Ac-L-Tyr-L-Tyr-NH2 in WEP442, pH 6.7 (Example 5) on the skin around and outside of eye areas and periorbital regions for 6 weeks.
Each time their vision in both eyes worsened, and they required changes in the prescription for their contact lenses in the past years. This time, one month before their checkup, the subject topically applied once daily 0.5% (w/v) N—Ac-L-Tyr-L-Tyr-NH2 in WEP442, pH 6.7 (Example 5) on the skin around and outside of eye areas and periorbital regions for 4 weeks.

[4] = test system: forearm skin; assay: Skin thickness of forearm by micrometer calipers after topical application; details: for appearance of treated left forearm at end of treatment: 1-3% (w/v) in WEP442 topically twice daily for 1-6 weeks as in the example, vehicle forearm still loose, thin and wrinkled; for increase in skin thickness of treated left forearm: 3% (w/v) in WEP442 topically twice daily, vehicle forearm no change
Protocol: In one of the studies related to skin changes associated with aging, skin thickness was measured by micrometer calipers as follows. The skin was grasped with a 2×6 cm metal hinge; the internal faces of which were coated with emery cloth to prevent slippage, and manually squeezed to threshold subject discomfort. Combined thickness of two whole-skin layers including thickness of the two hinge leaves was measured with micrometer calipers. Thickness of the two hinge leaves was subtracted to determine the actual thickness of two whole-skin layers. Triplicate measurements on treated sites were done and an average number was used for calculation of the skin thickness. In other studies, test sites of skin 17 mm in diameter were used, the circular sites were marked with permanent ink. Intervening control sites were also 17 mm in diameter. Thickness of skin of all sites was measured directly by means of an electronic digital caliper. In this instance the jaws of the caliper were opened to 17 mm, applied with pressure to the skin sites and then closed to firm tightness. Thickness of skin was then read off the screen of the calipers. Measurements of all sites were made in triplicates.

[5] = test system: stretch marks; assay: Topical treatment of stretch marks; details: twice daily, four weeks; 0.5% (w/w) N-Ac-L-Val-L-Ala-NH2 cream on one lesion, 0.5% (w/v) N-Ac-L-Tyr-L-Tyr-NH2 in WEP442 pH 6.7 on the other
Text: Stretch marks, known as striae, are visible linear scars caused by changes in collagen fibers and over stretching of the skin. Stretch marks are quite common in most adult women, and they readily develop at puberty or during pregnancy. They are also very common in obese people with sudden loss of weight. At present, there is no cure or effective treatment.
A subject, having lost a total of about 60 pounds from overweight over the last 10 years, developed multiple lesions of stretch marks over the body. The subject selected two separate lesions of stretch marks, and topically applied twice daily 0.5% (w/w) N—Ac-L-Val-L-Ala-NH2 cream (Example 2) on one lesion and 0.5% (w/v) N—Ac-L-Tyr-L-Tyr-NH2 solution in WEP442, pH 6.7 (Example 5) on the other lesion with untreated lesions of stretch marks as a control.
At the end of four weeks, the fine lines of stretch marks started to disappear, and deeper lines became less deep. The treated lesions had approximately 25% improvement as judged by clinical evaluation.

[6] = mosquito bites face and arms, twice daily, 0.5% (w/v) N-Ac-L-Val-L-Ala-NH2 in WEP442 pH 5.9 (second group), 0.5% (w/v) N-Ac-L-Tyr-L-Tyr-NH2 in WEP442 pH 6.7 (third group)

SMILES	itch after topical application [1, 6]	pain of sprained right shoulder ([2]; 0.5% (w/v) in WEP442 pH 6.7 topically twice daily, after three days)	improvement of right shoulder by clinical evaluation ([2]; 0.5% (w/v) in WEP442 pH 6.7 topically twice daily, end of 5 days) [%]	vision in both eyes at yearly checkup ([3]; 0.5% (w/v) in WEP442 pH 6.7 once daily on skin around eyes for 4 weeks)	vision in both eyes at yearly checkup ([3]; 0.5% (w/v) in WEP442 pH 6.7 twice daily on skin around eyes for 6 weeks)	appearance of treated left forearm at end of treatment [4]	increase in skin thickness of treated left forearm ([4]; after 2 weeks)	increase in skin thickness of treated left forearm ([4]; after 3 weeks) [%]	increase in skin thickness of treated left forearm ([4]; after 4 weeks)	improvement of treated stretch mark lesions as judged by clinical evaluation [5]	increase in skin thickness of treated left forearm ([4]; after 6 weeks) [%]	increase in skin thickness of treated left forearm ([4]; after one week) [%]	itch after topical application ([1]; 0.5% (w/v) in WEP442 pH 6.7 twice daily, chigger bites on legs)	improvement of lesions as judged by clinical evaluation ([1]; 0.5% (w/v) in WEP442 pH 6.7 twice daily, chigger bites on legs, end of five days) [%]	pain on walking ([2]; 0.4% (w/v) in WEP442 pH 5.8 rubbed onto left thigh and calf at night, sprained leg, next morning)	improvement of left leg by clinical evaluation ([2]; 0.4% (w/v) in WEP442 pH 5.8 rubbed onto left thigh and calf for 30 seconds at night, sprained leg, next morning)	muscle pain and inflammation in both arms ([2]; 0.5% (w/v) in WEP442 pH 6.7 topically twice daily, end of five days)	improvement of arms by clinical evaluation ([2]; 0.5% (w/v) in WEP442 pH 6.7 topically twice daily, muscle pain, end of five days)
CC(=O)N[C@@H](Cc1ccc(O)cc1)C(=O)N[C@@H](Cc1ccc(O)cc1)C(N)=O [N-Ac-L-Tyr-L-Tyr-NH2] (Ac-Tyr-Tyr-NH2)	stopped completely within a few minutes	disappeared completely	90	did not worsen	did not worsen	more firm, smooth, plump, and less wrinkled when lifted	13% and 19%	14	17% and 21%	approximately 25%								
CC(=O)NNC(=O)[C@H](Cc1ccc(O)cc1)NC(=O)[C@H](Cc1ccc(O)cc1)NC(C)=O [N-Ac-L-Tyr-L-Tyr-NHNHAc]						more firm, smooth, plump, and less wrinkled when lifted	7%	32			23	21						
CC(=O)N[C@H](C(=O)N[C@@H](C)C(N)=O)C(C)C [N-Ac-L-Val-L-Ala-NH2] (Ac-Val-Ala-NH2)	stopped completely within a few minutes									approximately 25%			stopped within a few minutes	100	could walk slowly without feeling any pain	approximately 75%	disappeared completely	95%-100%
